Experimental data reported in US6900202B2, “Di-substituted imineheterocyclic compounds” (priority 2000, dated 2005).

Experiments:
[1] = target: T1, α1β1γδ subtype of nicotinic acetylcholine receptors (Rattus norvegicus, UniProt P25108); assay: biochemical; format: binding; conditions: % of control binding remaining; for control % of [3H]-α-Bgt binding at 100 μM of test compound: 100 μM test compound; for control % of [3H]-α-Bgt binding at 1,000 μM of test compound: 1,000 μM test compound
T1 construct: The centrifugation at 100,000×G for 60 minutes at 4° C. yielded the rat muscle extract as supernatant
Text: (§1) The methods for evaluating the binding capabilities of the compounds against nicotinic acetylcholine receptors are different by subtypes of receptors. The binding capabilities of the compounds at α4β2 nicotinic acetylcholine receptors are examined using rat brain membrane obtained from whole homogenized brain, and determining the inhibiting rate of the compounds against [^3H]-cytisine binding to said brain membrane. Furthermore, the binding capabilities of the compounds at α1β1γδ nicotinic acetylcholine receptors are examined using homogenized rat muscle, and determining the inhibiting rate of the compounds against [^3H]-α-bungarotoxin binding to said muscle membrane.
Binding Assays at α1β1γδ Subtype of Nicotinic Acetylcholine Receptors
The affinity of the compounds of the present invention to α1β1γδ subtype of nicotinic acetylcholine receptors was measured by the following method, which was modified method described by Garcha H. S., Thomas P., Spivak C.
(1) Preparation of Rat Skeletal Muscles Containing α1β1γδ Subtype of Nicotinic Acetylcholine Receptors
The substantially same animals described in the Biological Experiment 1 were used.
The isolation of α1β1γδ subtype of nicotinic acetylcholine receptors was performed as follow. That is, rat posterior skeletal muscles were isolated just after sacrificed by decapitation, washed with ice-cooled saline solution and then frozen at −80° C. with liquid nitrogen and stored till using. After thawing the frozen muscles, tissue was homogenized (40% w/v) with buffer solution [2.5 mM of sodium phosphate buffer (pH:7.2), 90 mM of NaCl, 2 mM of KCl, 1 mM of EDTA, 2 mM of benzamidine, 0.1 mM of benzethonium chloride, 0.1 mM of PMSF, 0.01% of sodium azide] in Waring blender [Waring blender 34BL97; WARING PRODUCTS DIVISION DYNAMICS CORPORATION OF AMERICA) for 60 seconds. The homogenate were centrifuged under 20,000×G for 60 minutes at 4° C. The supernatant was separated and the resulting pellet was added to the same buffer (1.5 ml/g wet weight), and homogenized under the same conditions. Triton X100 (2% w/v) was added and the mixture was stirred for 3 hours at 4° C. The centrifugation at 100,000×G for 60 minutes at 4° C. yielded the rat muscle extract as supernatant. This was stored at 4° C. for up to 4 weeks, and used for binding assays at receptors.
(2) Experiments of α1β1γδ Subtype of Nicotinic Acetylcholine Receptors Binding
Receptors binding experiments were performed as follow. That is, the extract of rat muscle containing 600-900 μg of protein was added to test tubes containing test compounds and incubated for 15 minutes at 37° C. Then, to this mixture was added 1 nM of [^3H]-α-bungarotoxin (α-Bgt) and further incubated for 2 hours. The samples were isolated by vacuum filtration onto Whatman GF/B filters, which were prerinsed with 0.5% polyethylenimine just prior to sample filtration, using Brandel multi manifold cell harvester. The filters were rapidly rinsed with washing solution (10 mM of KH2PO4, 150 mM of NaCl, pH 7.2, room temperature) (5×1 ml). The filters were counted in 3 ml of clearsol I (Nacalai Tesque Inc.). The determination of nonspecific binding was incubated in the presence of 1 μM α-Bgt. […] In the receptor binding experiments, said buffer solution was added for adjusting the final concentration of BSA to be 0.05%.
The analyses of the experimental results were conducted by as described in the Biological Experiment 1.

[2] = target: T2, α4β2 subtype of nicotinic acetylcholine receptors (Rattus norvegicus, UniProt P09483+P12390); assay: Binding assay at α4β2 subtype of nicotinic acetylcholine receptors ([3H]-cytisine, rat brain membrane); conditions: for control % of [3H]-cytisine binding at 1 μM of test compound: 1 μM test compound; for control % of [3H]-cytisine binding at 1 μM of test compound / control % of [3H]-cytisine binding at 10 μM of test compound: % of control binding remaining; for control % of [3H]-cytisine binding at 10 μM of test compound: 10 μM test compound
T2 construct: examined using rat brain membrane obtained from whole homogenized brain; from tissue; host or cells: whole brain membranes of Fischer-344 male rats
Text: as §1
Binding Assays at α4β2 Subtype of Nicotinic Acetylcholine Receptors
The affinity of the compounds of the present invention to α4β2 subunit of nicotinic acetylcholine receptors was performed by the following method, which was modified method described by Pabreza L. A., Dhawan S. & Kellar K. J., Mol. Pharm., 39, 9-12 (1990), and by Anderson D. J. & Arneric S. P., Eur. J. Pharm., 253, 261-267 (1994).
(1) Preparation of Rat Brain Membrane Containing α4β2 subtype of Nicotinic Acetylcholine Receptors
Fischer-344 strain male rats (body weight: 200-240 g; 9 weeks old) obtained from Charles River Japan were used. Rats were housed in the breeding cage controlled of the room temperature at 23±1° C., and the humidity of 55±5% for 1 to 4 weeks. Rats (3 to 4 rats per a cage) were housed with lights on for 12 hours daily (from 7:00 to 19:00), and allowed free access to food and water.
Preparation of rat brain membrane containing α4β2 subtype of nicotinic acetylcholine receptors was performed as follow. That is, rat brains were isolated just after sacrificed by decapitation, washed with ice-cooled saline solution and then frozen at −80° C. with liquid nitrogen and stored till using. After thawing the frozen brain, the brain was homogenized in 10 volumes of buffer solution (50 mM of Tris-HCl, 120 mM of NaCl, 5 mM of KCl, 1 mM of MgCl2, 2mM of CaCl2; pH 7.4; 4° C.) using homogenizer (HG30, Hitachi Kohki Ltd.) for 30 seconds, and the homogenate were centrifuged under 1,000×G for 10 minutes at 4° C. The resulting supernatant was separated and the pellet was homogenized again with half volume of aforementioned prior buffer solution and centrifuged under the same conditions. Combined supernatant was further centrifuged under 40,000×G for 20 minutes at 4° C. The pellet was suspended in buffer solution and used for binding assays at receptors.
(2) Experiments of α4β2 Subtype of Nicotinic Acetylcholine Receptors Binding
Suspensions of membrane pellets containing 400-600 μg of protein were added to test tubes containing test compounds and [^3H]-cytisine (2 nM) in a final volume of 200 μl and incubated for 75 minutes in ice-cooled bath. The samples were isolated by vacuum filtration onto Whatman GF/B filters, which were prerinsed with 0.5% polyethylenimine just prior to sample filtration, using Brandel multi manifold cell harvester. The filters were rapidly washed with buffer solution (3×1 ml). The filters were counted in 3 ml of clearsol I (Nacalai Tesque Inc.).
The analyses of the experimental results were conducted by using the Accufit Competition Program (Beckman Ltd.).

T2 sequence (P09483 31-630): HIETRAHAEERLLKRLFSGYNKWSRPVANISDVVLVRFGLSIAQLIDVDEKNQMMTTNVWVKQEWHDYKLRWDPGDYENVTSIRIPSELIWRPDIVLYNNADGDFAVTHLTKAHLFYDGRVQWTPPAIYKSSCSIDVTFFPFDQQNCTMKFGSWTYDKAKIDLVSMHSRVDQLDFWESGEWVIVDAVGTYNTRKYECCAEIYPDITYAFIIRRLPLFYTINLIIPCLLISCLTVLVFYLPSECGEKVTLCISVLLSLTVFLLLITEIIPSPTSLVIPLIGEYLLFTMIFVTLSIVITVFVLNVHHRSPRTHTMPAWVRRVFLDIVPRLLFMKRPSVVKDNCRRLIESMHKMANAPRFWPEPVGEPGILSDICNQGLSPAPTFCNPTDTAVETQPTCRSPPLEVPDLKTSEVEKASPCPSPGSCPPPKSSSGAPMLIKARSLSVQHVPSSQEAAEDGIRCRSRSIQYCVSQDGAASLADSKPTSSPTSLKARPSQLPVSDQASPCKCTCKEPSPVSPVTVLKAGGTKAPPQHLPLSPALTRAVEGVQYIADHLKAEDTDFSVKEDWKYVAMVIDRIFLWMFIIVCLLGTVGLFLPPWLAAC
T2 sequence (P12390 25-500): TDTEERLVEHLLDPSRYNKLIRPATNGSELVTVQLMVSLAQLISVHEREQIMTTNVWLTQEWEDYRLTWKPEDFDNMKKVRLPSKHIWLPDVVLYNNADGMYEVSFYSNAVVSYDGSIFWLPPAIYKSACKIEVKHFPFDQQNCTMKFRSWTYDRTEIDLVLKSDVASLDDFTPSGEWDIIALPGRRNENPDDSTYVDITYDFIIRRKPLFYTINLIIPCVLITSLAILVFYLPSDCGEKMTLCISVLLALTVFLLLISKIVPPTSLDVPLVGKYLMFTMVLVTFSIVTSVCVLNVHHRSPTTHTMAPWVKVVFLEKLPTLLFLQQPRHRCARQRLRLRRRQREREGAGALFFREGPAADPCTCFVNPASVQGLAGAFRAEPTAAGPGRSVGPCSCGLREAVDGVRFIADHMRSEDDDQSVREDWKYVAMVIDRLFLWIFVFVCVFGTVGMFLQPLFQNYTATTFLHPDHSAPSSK
T1 sequence (P25108 21-457): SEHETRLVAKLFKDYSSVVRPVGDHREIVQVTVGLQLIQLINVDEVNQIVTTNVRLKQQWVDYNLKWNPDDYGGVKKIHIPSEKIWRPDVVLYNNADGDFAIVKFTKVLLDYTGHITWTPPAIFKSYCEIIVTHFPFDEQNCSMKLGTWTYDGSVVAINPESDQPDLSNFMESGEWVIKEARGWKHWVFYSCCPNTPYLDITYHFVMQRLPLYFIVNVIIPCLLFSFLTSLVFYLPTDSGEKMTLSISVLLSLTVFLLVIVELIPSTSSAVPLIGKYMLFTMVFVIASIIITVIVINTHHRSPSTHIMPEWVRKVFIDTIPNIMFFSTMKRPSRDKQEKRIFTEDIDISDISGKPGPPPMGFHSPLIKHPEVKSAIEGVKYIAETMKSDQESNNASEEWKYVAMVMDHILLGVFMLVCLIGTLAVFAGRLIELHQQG
T1 sequence (P25109 24-501, further chain): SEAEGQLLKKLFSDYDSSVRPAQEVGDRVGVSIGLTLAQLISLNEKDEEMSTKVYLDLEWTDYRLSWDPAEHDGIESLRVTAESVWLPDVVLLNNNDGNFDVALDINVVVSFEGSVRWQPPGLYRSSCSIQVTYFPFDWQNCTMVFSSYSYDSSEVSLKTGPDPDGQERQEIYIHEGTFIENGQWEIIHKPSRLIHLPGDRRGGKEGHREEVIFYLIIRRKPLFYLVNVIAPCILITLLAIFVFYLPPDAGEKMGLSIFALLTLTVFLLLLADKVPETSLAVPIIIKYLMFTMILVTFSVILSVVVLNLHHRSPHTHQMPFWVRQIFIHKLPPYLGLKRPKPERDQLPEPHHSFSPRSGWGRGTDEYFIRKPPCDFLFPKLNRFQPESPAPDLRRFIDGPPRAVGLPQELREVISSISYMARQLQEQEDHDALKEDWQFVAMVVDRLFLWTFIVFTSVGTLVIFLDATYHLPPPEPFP
T1 sequence (P25110 22-517, further chain): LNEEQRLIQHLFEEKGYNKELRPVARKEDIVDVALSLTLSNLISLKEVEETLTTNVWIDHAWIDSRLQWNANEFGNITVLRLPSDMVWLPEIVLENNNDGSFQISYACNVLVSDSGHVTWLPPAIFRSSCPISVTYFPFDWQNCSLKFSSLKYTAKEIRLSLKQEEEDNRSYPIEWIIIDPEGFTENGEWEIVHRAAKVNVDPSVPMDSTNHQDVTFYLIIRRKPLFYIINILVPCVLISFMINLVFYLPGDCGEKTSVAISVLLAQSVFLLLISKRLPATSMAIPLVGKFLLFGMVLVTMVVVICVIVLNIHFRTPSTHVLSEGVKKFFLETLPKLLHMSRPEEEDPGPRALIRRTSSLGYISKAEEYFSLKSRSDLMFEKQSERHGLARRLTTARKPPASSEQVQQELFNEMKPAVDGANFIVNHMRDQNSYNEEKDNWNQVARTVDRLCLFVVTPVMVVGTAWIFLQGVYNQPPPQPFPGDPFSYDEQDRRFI

SMILES | control % of [3H]-α-Bgt binding at 100 μM of test compound [1] [%] | control % of [3H]-α-Bgt binding at 1,000 μM of test compound [1] [%] | Ki [2] [nM] | control % of [3H]-cytisine binding at 1 μM of test compound [2] [%] | control % of [3H]-cytisine binding at 10 μM of test compound [2] [%]
Clc1ccc(C/N=C2\NCCCN2Cc2ccc(Cl)nc2)cn1 [Compound 3, 1-(6-chloro-3-pyridyl)methyl-[(6-chloro-3-pyridyl)methyl]imino-1,2,3,4,5,6-hexahydropyrimidine] | 77 | 76 | 739 |  | 
N=C1N(Cc2ccc(Cl)nc2)CCCN1Cc1ccc(Cl)nc1 [Compound 4, 1,3-bis[(6-chloro-3-pyridyl)methyl]-2-imino-1,2,3,4,5,6-hexahydropyrimidine] | 49 | 30 | 475 |  | 
Clc1ccc(C/N=c2\ncccn2Cc2ccc(Cl)nc2)cn1 [Compound 5, 1-(6-chloro-3-pyridyl)methyl-2-[(6-chloro-3-pyridyl)methyl]imino-1,2-dihydropyrimidine] |  |  |  | 92 | 23
Clc1cc/c(=N\Cc2ccc(Cl)nc2)n(Cc2ccc(Cl)nc2)c1 [Compound 6, 5-chloro-1-(6-chloro-3-pyridyl)methyl-2-[(6-chloro-3-pyridyl)methyl]imino-1,2-dihydropyridine] |  |  |  | 94 | 45
CC1CCC/C(=N\Cc2ccc(Cl)nc2)N1Cc1ccc(Cl)nc1 (stereo not shown) [Compound 7, 1-(6-chloro-3-pyridyl)methyl-2-[(6-chloro-3-pyridyl)methyl]imino-6-methylpiperidine] | 85 | 52 |  | 85 | 75
Cc1cs/c(=N\Cc2ccc(Cl)nc2)n1Cc1ccc(Cl)nc1 [Compound 9, 3-(6-Chloro-3-pyridyl)methyl-2-[(6-chloro-3-pyridyl)methyl]imino-4-methyl-2,3-dihydrothiazole] | 78 | 40 | 110 |  | 
N=c1n(Cc2ccc(Cl)nc2)ccn1Cc1ccc(Cl)nc1 [Compound 10, 1,3-bis[(6-chloro-3-pyridyl)methyl]-2-imino-2,3-dihydroimidazole] |  |  |  | 89 | 46
C/N=C1\SCCN1Cc1ccc(Cl)nc1 [Compound 11, 3-(6-chloro-3-pyridyl)methyl-2-methylimino-thiazolidine] |  |  |  | 93 | 18
Clc1ccc(Cn2ccs/c2=N\c2ccccc2)cn1 [Compound 12, 3-(6-Chloro-3-pyridyl)methyl-2-phenylimino-2,3-dihydrothiazole] | 86 | 48 |  | 109 | 84
Clc1ccc(CN2CCS/C2=N\Cc2ccccc2)cn1 [Compound 14, 2-Benzylimino-3-(6-chloro-3-pyridyl)methylthiazolidine] | 64 | 20 | 123 |  | 
